Assay results: patent publication US10195196B2, “1,4-disubstituted pyridazine analogs there of and methods for treating SMN-deficiency-related conditions” (NOVARTIS AG, priority 2012, dated 2019)

Tested on: SMN protein
Assay: cellular SMN ELISA (SMN protein elevation)
Type: cell-based
Settings: ELISA condition 2: compound concentration 100 pM-10 uM, myoblast cell line from SMNdelta7 mouse model, 24 hours treatment; for SMN activity Fold: fold activation over DMSO control
Summary of the method: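 SMNdelta7 mouse-derived myoblasts were treated with compound for 24 h, then lysed. SMN protein was quantified by sandwich ELISA (HRP/TMB, 450 nm) and reported as fold over DMSO and EC50, over 20 nM–10 μM or 100 pM–10 μM depending on condition.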

Cc1c[nH]c(-c2ccc(-c3ccc(N(C)C4CC(C)(C)NC(C)(C)C4)nn3)c(O)c2)n1 [Example 42-5, 2-(6-(methyl(2,2,6,6-tetramethylpiperidin-4-yl)amino)pyridazin-3-yl)-5-(4-methyl-1H-imidazol-2-yl)phenol]
EC50: 202 nM | SMN activity Fold: 3.22 Fold

CN(c1ccc(-c2ccc(-c3cn(C)cn3)cc2O)nn1)C1CC(C)(C)NC(C)(C)C1 [Example 42-6, 2-(6-(methyl(2,2,6,6-tetramethylpiperidin-4-yl)amino)pyridazin-3-yl)-5-(1-methyl-1H-imidazol-4-yl)phenol]
EC50: 66 nM | SMN activity Fold: 2.49 Fold

CN(c1ccc(-c2ccc(-c3cncn3C)cc2O)nn1)C1CC(C)(C)NC(C)(C)C1 [Example 42-7, 2-(6-(methyl(2,2,6,6-tetramethylpiperidin-4-yl)amino)pyridazin-3-yl)-5-(1-methyl-1H-imidazol-5-yl)phenol]
EC50: 55 nM | SMN activity Fold: 2.51 Fold

CN(c1ccc(-c2ccc(-c3nc([N+](=O)[O-])c[nH]3)cc2O)nn1)C1CC(C)(C)NC(C)(C)C1 [Example 42-8, 2-(6-(methyl(2,2,6,6-tetramethylpiperidin-4-yl)amino)pyridazin-3-yl)-5-(4-nitro-1H-imidazol-2-yl)phenol]
EC50: 756 nM | SMN activity Fold: 2.82 Fold

Cc1nc(-c2ccc(-c3ccc(N(C)C4CC(C)(C)NC(C)(C)C4)nn3)c(O)c2)c[nH]1 [Example 42-9, 2-(6-(methyl(2,2,6,6-tetramethylpiperidin-4-yl)amino)pyridazin-3-yl)-5-(2-methyl-1H-imidazol-4-yl)phenol]
EC50: 15 nM | SMN activity Fold: 2.85 Fold

Cc1nc(-c2ccc(-c3ccc(N(C)C4CC(C)(C)NC(C)(C)C4)nn3)c(O)c2)cn1C [Example 42-10, 5-(1,2-dimethyl-1H-imidazol-4-yl)-2-(6-(methyl(2,2,6,6-tetramethylpiperidin-4-yl)amino)pyridazin-3-yl)phenol]
EC50: 57 nM | SMN activity Fold: 3.10 Fold

CN(c1ccc(-c2ccc(-n3cc(C(N)=O)cn3)cc2O)nn1)C1CC(C)(C)NC(C)(C)C1 [Example 42-11, 1-(3-hydroxy-4-(6-(methyl(2,2,6,6-tetramethylpiperidin-4-yl)amino)pyridazin-3-yl)phenyl)-1H-pyrazole-4-carboxamide]
EC50: 239 nM | SMN activity Fold: 3.37 Fold

OCCN1C[C@@H]2CN(c3ccc(-c4ccc(-c5cn[nH]c5)cc4O)nn3)C[C@@H]2C1 [Example 43-1, 2-(6-((3aR,6aS)-5-(2-hydroxyethyl)hexahydropyrrolo[3,4-c]pyrrol-2(1H)-yl)pyridazin-3-yl)-5-(1H-pyrazol-4-yl)phenol]
EC50: 40 nM | SMN activity Fold: 3.04 Fold

CN1C[C@@H]2CN(c3ccc(-c4ccc(-c5cn[nH]c5)cc4O)nn3)C[C@@H]2C1 [Example 43-3, 2-(6-((3aR,6aS)-5-methylhexahydropyrrolo[3,4-c]pyrrol-2(1H)-yl)pyridazin-3-yl)-5-(1H-pyrazol-4-yl)phenol]
EC50: 19 nM | SMN activity Fold: 2.39 Fold

CN1C[C@@H]2CN(c3ccc(-c4ccc(-c5ccn(C)c(=O)c5)cc4O)nn3)C[C@@H]2C1 [Example 43-4, 4-(3-hydroxy-4-(6-(5-methylhexahydropyrrolo[3,4-c]pyrrol-2(1H)-yl)pyridazin-3-yl)phenyl)-1-methylpyridin-2(1H)-one]
EC50: 41 nM | SMN activity Fold: 2.94 Fold

CN1CC[C@@H]2CN(c3ccc(-c4ccc(-c5ccn(C)c(=O)c5)cc4O)nn3)C[C@@H]21 [Example 43-5, 4-(3-hydroxy-4-(6-((3aR,6aR)-1-methylhexahydropyrrolo[3,4-b]pyrrol-5(1H)-yl)pyridazin-3-yl)phenyl)-1-methylpyridin-2(1H)-one]
EC50: 159 nM | SMN activity Fold: 2.29 Fold

Cn1ccc(-c2ccc(-c3ccc(N4CCC5(CCCNC5)C4)nn3)c(O)c2)cc1=O (stereo not drawn) [Example 43-7, 4-(4-(6-(2,7-diazaspiro[4.5]decan-2-yl)pyridazin-3-yl)-3-hydroxyphenyl)-1-methylpyridin-2(1H)-one]
EC50: 156 nM | SMN activity Fold: 2.42 Fold
